The structures appear in SMILES notation.

Data set [1] deals with T1, endogenous AEP in human B lymphoblastoid pala cells (Homo sapiens, UniProt Q99538).
T1 construct: human B lymphoblastoid pala cells, which are rich in endogenous AEP; endogenous in cells; host or cells: human B lymphoblastoid Pala cells
T1 sequence (Q99538 18-323): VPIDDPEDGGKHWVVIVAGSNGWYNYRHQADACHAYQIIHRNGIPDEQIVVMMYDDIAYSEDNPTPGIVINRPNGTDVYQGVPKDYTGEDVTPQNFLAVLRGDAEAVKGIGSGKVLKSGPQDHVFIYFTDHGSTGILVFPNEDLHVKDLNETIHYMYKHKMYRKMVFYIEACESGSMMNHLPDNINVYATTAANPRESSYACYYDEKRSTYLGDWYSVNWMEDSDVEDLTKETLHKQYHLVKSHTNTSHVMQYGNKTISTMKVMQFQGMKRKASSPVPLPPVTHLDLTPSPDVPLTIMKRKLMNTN
Description: AEP inhibition in intact Pala cells. The note with it: 2 hrs incubation, residual enzymatic activity in lysate. In kind it is cell-based. On the procedure: The cells were incubated with inhibitors for 2 hrs then cells washed, harvested and lysed and the residual enzymatic activity was determined. Lysate was normalized by Bradford assay and the experiment was performed in triplicate and the mean results and SEM were plotted.
In an attempt to assess the activity of the compounds in intact cells, the compounds were incubated with human B lymphoblastoid pala cells, which are rich in endogenous AEP and have been used for inhibiting AEP in cellular assay.

Data set [2] relates to amyloid precursor protein (APP) cleavage. Description: APP cleavage in OGD-treated primary cortical neurons. It counts as cell-based. On the procedure:
A. AEP activity, measured in primary neuronal cultures with 5 μM Cbz-Ala-Ala-Asn-AMC (x-axis denotes neurons were treated with 0.1 μM or 1.0 μM specified compound). B. Caspase activity, measured in primary neuronal cultures with 5 μM Ac-Asp-Glu-Val-Asp-AMC. C. Cathepsin activity, measured in primary neuronal cultures with 5 μM D-Val-Leu-Lys-AMC. D. Inhibition of APP cleavage. Lysates of primary cortical neurons pre-incubated with compounds for 30 min, underwent OGD for 4 hrs, were reperfused for 18 hrs (normoxia neurons remained at normoxic conditions). E. APP can be cleaved in a dose-dependent manner. Lysates of primary cortical neurons pre-incubated with compounds for 30 min, underwent OGD for 4 hrs, were reperfused for 18 hrs (normoxia neurons remained at normoxic conditions).
Depriving cells of oxygen and glucose is a cellular model that is employed to trigger acidosis in cultured cells. The efficacy of the compounds in a cellular model of oxygen-glucose deprivation (OGD) was determined in an effort to mimic the effects of stroke in primary cultured neurons. As a result of depriving neurons of oxygen and glucose-containing medium, AEP activity was doubled (FIG. 7A, ‘DMSO-Norm’ compared to ‘DMSO-OGD’), while Caspase-3 and Cathepsin activities remained relatively unchanged. […] Cleavage of APP is observed in response to only DMSO treatment (FIG. 7D, lane 2), and it appears that upon the treatment of 1 μM of compounds 10, 11, and 12, and just 0.1 μM of compound s31, 38 and 64, the cleavage was blocked, presumably due to AEP inhibition.

A further data set deals with T2, AEP (Homo sapiens, UniProt Q99538).
T2 construct: tested with purified active AEP, IC50 values for the top 8 candidates were found
T2 sequence (Q99538 18-323 limits assumed): T1 sequence (Q99538 18-323)
The data set can be described thus: DTT / L-cysteine reversibility of AEP inhibition. In kind it is biochemical. The conditions noted are these: 10 mM DTT or L-cysteine added after 15 min. On the procedure:
AEP was reacted with specified inhibitor, after 15 min 10 mM DTT or L-cysteine was added to the reaction and the fluorescent signal was read for an additional 15 min. At the end of the second 15 min incubation, the percentage of product formed in the presence of each compound was determined in comparison to the DMSO control reaction.
Although it is not intended that embodiments of this disclosure be limited by any particular mechanism, to gain additional insight into the mechanism utilized by the inhibitors for abrogation of AEP activity, their reversibility in the presence of free thiols was determined. The addition of a strong reducing agent, such as DTT, or a weaker reducing agent, L-cysteine, to an inhibited reaction can be used to out-compete the inhibitory agent and restore catalytic activity to an enzyme with an active-site thiol residue. Here, a similar approach was used by adding a reducing agent, either DTT or L-cysteine, to a reaction, in which AEP had been incubated with a specified inhibitor, in an attempt to reverse the effects of the inhibitor. […] For compounds BB1 and 38, this increase in enzymatic activity may be due to the reduction of a disulfide linkage between the inhibitor and the enzyme, since these compounds contain thiols. Compound 10 contains a thiocyanate and may undergoes nucleophilic attack by the enzyme's active-site thiolate to form a thioimidate enzyme-inhibitor complex. Under acidic conditions, this complex is reducible by either a strong reducing agent, such as DTT, or the weaker L-cysteine.

Another data set deals with Caco-2 monolayer. The data set can be described thus: Caco-2 monolayer permeability screen.
The target of another data set is CYP3A4 (Homo sapiens, UniProt P08684). Description: CYP inhibition screening, CYP3A4-Midazolam. It counts as in vitro ADME.
CYP3A4, sequence (P08684 whole entry): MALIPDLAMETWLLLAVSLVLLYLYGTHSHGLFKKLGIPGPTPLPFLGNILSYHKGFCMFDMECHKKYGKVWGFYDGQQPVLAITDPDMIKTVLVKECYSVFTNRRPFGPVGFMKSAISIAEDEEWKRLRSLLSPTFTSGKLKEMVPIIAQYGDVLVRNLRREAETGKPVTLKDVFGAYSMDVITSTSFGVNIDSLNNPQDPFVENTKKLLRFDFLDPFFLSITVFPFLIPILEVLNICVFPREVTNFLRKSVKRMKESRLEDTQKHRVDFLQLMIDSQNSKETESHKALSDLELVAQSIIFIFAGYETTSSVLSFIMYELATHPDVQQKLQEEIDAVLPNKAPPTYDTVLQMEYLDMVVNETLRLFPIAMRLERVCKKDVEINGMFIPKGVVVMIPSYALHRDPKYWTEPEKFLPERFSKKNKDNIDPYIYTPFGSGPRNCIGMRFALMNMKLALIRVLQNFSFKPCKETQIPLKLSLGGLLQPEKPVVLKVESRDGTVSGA
The target of another data set is T3, CYP1A2 (Homo sapiens, UniProt P05177).
T3 sequence (P05177 1-516): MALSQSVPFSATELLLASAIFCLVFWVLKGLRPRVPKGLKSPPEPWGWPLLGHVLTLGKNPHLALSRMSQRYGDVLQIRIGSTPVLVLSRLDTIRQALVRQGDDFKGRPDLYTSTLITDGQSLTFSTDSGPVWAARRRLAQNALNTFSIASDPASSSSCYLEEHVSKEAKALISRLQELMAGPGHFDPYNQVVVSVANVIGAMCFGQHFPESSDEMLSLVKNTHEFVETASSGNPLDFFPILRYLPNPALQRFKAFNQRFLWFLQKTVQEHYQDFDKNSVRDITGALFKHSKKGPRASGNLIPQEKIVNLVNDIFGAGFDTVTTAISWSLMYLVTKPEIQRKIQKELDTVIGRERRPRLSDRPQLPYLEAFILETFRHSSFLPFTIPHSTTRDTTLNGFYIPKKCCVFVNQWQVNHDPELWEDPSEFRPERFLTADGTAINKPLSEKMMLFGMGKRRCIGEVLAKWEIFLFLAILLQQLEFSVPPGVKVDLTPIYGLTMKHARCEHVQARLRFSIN
The data set can be described thus: CYP inhibition screening, CYP1A2. It counts as in vitro ADME.

A further data set has as its target CYP2C19 (Homo sapiens, UniProt P33261). The data set can be described thus: CYP inhibition screening, CYP2C19. It counts as in vitro ADME.
The target of another data set is CYP2D6 (Homo sapiens, UniProt P10635). Description: CYP inhibition screening, CYP2D6. It counts as in vitro ADME.
CYP2D6, sequence (P10635 whole entry): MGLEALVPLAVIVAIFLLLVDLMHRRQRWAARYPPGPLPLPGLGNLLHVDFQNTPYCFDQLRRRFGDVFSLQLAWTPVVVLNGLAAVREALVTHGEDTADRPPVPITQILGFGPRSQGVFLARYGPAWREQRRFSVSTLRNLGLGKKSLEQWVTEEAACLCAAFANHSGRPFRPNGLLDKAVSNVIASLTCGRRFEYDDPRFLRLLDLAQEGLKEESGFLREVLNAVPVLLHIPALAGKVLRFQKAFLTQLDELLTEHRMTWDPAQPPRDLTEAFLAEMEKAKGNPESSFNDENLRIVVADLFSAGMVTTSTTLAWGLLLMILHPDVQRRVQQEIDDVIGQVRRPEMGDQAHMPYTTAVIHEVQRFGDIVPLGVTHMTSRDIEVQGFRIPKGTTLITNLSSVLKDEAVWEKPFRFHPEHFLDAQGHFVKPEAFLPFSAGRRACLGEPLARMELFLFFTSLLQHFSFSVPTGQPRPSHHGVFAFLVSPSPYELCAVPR
Data set [3] is described as follows: BBB-PAMPA permeability assay. In kind it is in vitro ADME. (In general: In PAMPA a lipid-coated filter parts donor from acceptor wells.)
For a further data set, the system named is CYP3A. The data set can be described thus: CYP inhibition screening, CYP3A-Testosterone. It counts as in vitro ADME.
Data set [4] is described as follows: Mouse liver microsomal stability screen. The conditions noted are these: Mouse liver microsomes.
For another data set, the target named is CYP2C9 (Homo sapiens, UniProt P11712). The data set can be described thus: CYP inhibition screening, CYP2C9. It counts as in vitro ADME.
CYP2C9, sequence (P11712 whole entry): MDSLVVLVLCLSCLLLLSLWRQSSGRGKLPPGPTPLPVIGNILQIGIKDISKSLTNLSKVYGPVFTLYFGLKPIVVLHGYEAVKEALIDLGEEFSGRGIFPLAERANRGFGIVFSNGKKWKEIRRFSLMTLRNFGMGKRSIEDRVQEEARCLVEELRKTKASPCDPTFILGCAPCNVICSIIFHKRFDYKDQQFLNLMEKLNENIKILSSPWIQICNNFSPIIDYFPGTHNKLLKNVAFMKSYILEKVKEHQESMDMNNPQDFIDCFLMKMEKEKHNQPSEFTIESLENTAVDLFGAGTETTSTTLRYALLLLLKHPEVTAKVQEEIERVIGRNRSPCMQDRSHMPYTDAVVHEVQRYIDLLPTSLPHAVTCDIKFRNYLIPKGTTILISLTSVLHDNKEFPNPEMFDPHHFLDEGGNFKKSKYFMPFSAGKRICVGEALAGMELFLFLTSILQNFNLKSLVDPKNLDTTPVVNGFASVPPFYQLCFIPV
A short description of data set [5]: Human liver microsomal stability screen. The conditions noted are these: Human liver microsomes.
Another data set has as its target Cathepsin-L (Homo sapiens, UniProt P07711). The data set can be described thus: Specificity assay against Cathepsin-L. In kind it is biochemical.

CYP2C19, sequence (P33261 whole entry): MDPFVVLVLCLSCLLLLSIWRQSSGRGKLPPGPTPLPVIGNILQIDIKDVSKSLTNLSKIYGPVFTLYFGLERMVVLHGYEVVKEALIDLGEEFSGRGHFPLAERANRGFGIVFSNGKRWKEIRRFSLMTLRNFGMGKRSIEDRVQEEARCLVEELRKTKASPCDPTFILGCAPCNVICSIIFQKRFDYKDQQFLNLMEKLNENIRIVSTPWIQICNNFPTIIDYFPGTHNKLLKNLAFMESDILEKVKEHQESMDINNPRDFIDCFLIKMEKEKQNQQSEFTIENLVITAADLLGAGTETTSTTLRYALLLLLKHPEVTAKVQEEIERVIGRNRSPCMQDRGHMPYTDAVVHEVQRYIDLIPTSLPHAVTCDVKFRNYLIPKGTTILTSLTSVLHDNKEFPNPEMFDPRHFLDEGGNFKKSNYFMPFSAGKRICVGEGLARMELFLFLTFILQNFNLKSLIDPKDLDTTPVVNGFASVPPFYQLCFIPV
Cathepsin-L, sequence (P07711 114-333, species assumed): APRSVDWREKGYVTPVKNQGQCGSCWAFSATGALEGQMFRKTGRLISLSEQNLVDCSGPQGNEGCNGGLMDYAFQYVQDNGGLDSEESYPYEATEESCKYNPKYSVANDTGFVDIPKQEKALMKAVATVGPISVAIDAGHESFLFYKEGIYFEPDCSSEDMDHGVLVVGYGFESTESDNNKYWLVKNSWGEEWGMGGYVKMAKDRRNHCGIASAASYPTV
Description for Caco-2 monolayer: To explore the in vitro ADME profiles of the compounds, additional tests were conducted.
Description for Cathepsin-L: Purified recombinant enzyme was incubated with various concentrations of inhibitor in appropriate assay buffers in the presence of increasing concentrations of inhibitor. The formation of fluorescent product was monitored in duplicate reactions and the data was fit to appropriate equations to calculate the IC50 values.

Regarding `N#CSc1cnc(N)s1` [Compound 10], in data set [1], the “IC50 in intact Pala cells” value is “slightly larger IC50 values”. Also, the “APP cleavage after OGD” value in data set [2] (1 μM compound) was “blocked”. Besides, the “APP cleavage after OGD, dose dependence” value in data set [2] (FIG. 7E) is “dose-dependent decrease”. Also, the “AEP activity after addition of reducing agent (reversibility)” value at AEP is recorded as “regained a substantial amount of activity”.
Consider `CNC(=C[N+](=O)[O-])NCCSCc1ccc(CN(C)C)o1` [Ranitidine, reference compound], for which, in the data set with Caco-2 monolayer (table of derivatives), the “A −>B Papp” value is on record as 0.2 10^−6 cm · s^−1 and the RE is 8.1.
Turning to `Cn1c(S)nc2c1c(=O)n(Cc1ccccc1)c(=O)n2C` [Compound 38D-22], in the data set with Caco-2 monolayer (table of derivatives), the “A −>B Papp” value is given as 10.0 10^−6 cm · s^−1, the “B −> A Papp” value is 30.5 10^−6 cm · s^−1 and the RE was 3.0.
As to `COc1ccc(N2CCN(C(c3ccc(N(C)C)cc3)c3nnnn3C(C)(C)C)CC2)cc1` (centres unmarked) [Compound 31], the results for the CYP3A4-Midazolam inhibition at CYP3A4 (3 μM) and on CYP3A4 (10 μM) were −0.9% and 18.1%, respectively. In the data set on Caco-2 monolayer, the “Caco-2 permeability in words” value is listed as “highly permeable”. The “A −>B Papp” value in the data set on Caco-2 monolayer (Table 1) was 19.3 10^−6 cm · s^−1. Moreover, the “B −> A Papp” value in the data set on Caco-2 monolayer (Table 1) is 17.4 10^−6 cm · s^−1. In addition, the RE in the data set on Caco-2 monolayer (Table 1) was 0.9. The CYP1A2 inhibition on CYP1A2 (3 μM) was 13.5%; at CYP1A2 (10 μM), 10.3%. Besides, the figures for the CYP2C19 inhibition on CYP2C19 (3 μM) and at CYP2C19 (10 μM) were 37.7% and 55.7%, respectively. In data set [2] (0.1 μM compound), the “APP cleavage after OGD” value was “blocked”. Moreover, the figures for the CYP2D6 inhibition at CYP2D6 (3 μM) and at CYP2D6 (10 μM) were 9.9% and 1.4%, respectively. Moreover, in data set [3], the Pe result is given as “<LLOQ”. Also, the values for the CYP3A-Testosterone inhibition in the data set on CYP3A (3 μM) and in the data set on CYP3A (10 μM) were 2.5% and 0.7%, respectively. Further, the “Mean Remaining Parent (NADPH-free)” value in [4] is recorded as 86%; in data set [5], 75%. The results for the “Mean Remaining Parent (with NADPH)” value in data set [4] and in [5] (30 min) were 16% and 12%, respectively. For the same compound, the CYP2C9 inhibition turned out to be 47.8% at CYP2C9 (3 μM) and 69.2% at CYP2C9 (10 μM).
As for `Cn1c(=O)c2c(nc(S)n2C)n(C)c1=O` [Compound 38D-16], in the data set with Caco-2 monolayer (table of derivatives), the “A −>B Papp” value was 0.9 10^−6 cm · s^−1, the “B −> A Papp” value is on record as 3.0 10^−6 cm · s^−1 and the RE was 3.3. For the same compound, on Cathepsin-L, the “selectivity for AEP over Cathepsin-L” value worked out at 500 fold.

Values taken from patent publication US10759803B2, “Asparagine endopeptidase (AEP) inhibitors for managing cancer and compositions related thereto” (priority 2014, dated 2020).
